Results published in patent publication US8592174B2, “Peptidase substrates” (bioMérieux, S.A., priority 2009, dated 2013).

Assays:
Assay type in all cases: cell-based
[1] = test system: Enterobacter sakazakii 05 01 020; experiment: pH variation detection on modified chromID Coli medium (Example 6); details: 50 mg/l, 24 h 37° C.
Method: (§1) The media were incubated for 24 hours at 37° C., then the spots formed were examined visually.

[2] = test system: Pseudomonas aeruginosa 89 09 041; experiment: as above; details: 50 mg/l, 24 h 37° C.
Method: as §1

[3] = test system: Pectobacterium atrosepticum 80 12 075; experiment: as above; details: 50 mg/l, 24 h 37° C.
Method: as §1

[4] = test system: Forty-four strains of microorganisms; experiment: pH variation detection on modified chromID Coli medium (Example 6), all strains; details: 50 mg/l; 24 h 37° C.; conclusion of Example 6
Method: as §1

[5] = test system: Providencia rettgeri 0706064; experiment: Peptidase detection on Columbia medium (Example 4); details: 75 mg/l, 48 h 37° C.; for Growth: control C: ++
Source text: (§2) After homogenization, the media were distributed into 120-mm-squared dishes. A medium serving as a growth control (Columbia) and denoted C was also poured.

[6] = test system: Bacillus subtilis 0204038; experiment: Peptidase detection on Columbia medium (Example 4); details: 75 mg/l, 48 h 37° C.; for Growth: control C: ++
Source text: as §2

[7] = test system: Enterococcus faecium 0610021; experiment: Peptidase detection on Columbia medium (Example 4); details: 75 mg/l, 48 h 37° C.; for Growth: control C: ++
Source text: as §2

Escherichia coli 0002005 = experiment: Peptidase detection on Columbia medium (Example 4); details: 75 mg/l, 48 h 37° C.; for Growth: control C: ++
Source text: as §2

[8] = test system: Acinetobacter baumannii 0604029; experiment: Peptidase detection on Columbia medium (Example 4); details: 75 mg/l, 48 h 37° C.; for Growth: control C: ++
Source text: as §2

[9] = test system: Staphylococcus aureus 7811049; experiment: Peptidase detection on Columbia medium (Example 4); details: 75 mg/l, 48 h 37° C.; for Growth: control C: ++
Source text: as §2

[10] = test system: Serratia marcescens 7303004; experiment: Peptidase detection on Columbia medium (Example 4); details: 75 mg/l, 48 h 37° C.; for Growth: control C: ++
Source text: as §2

MRSA 0303033 = experiment: Peptidase detection on Columbia medium (Example 4); details: 75 mg/l, 48 h 37° C.; for Growth: control C: ++
Source text: as §2

[11] = test system: Morganella morganii 9207053; experiment: Peptidase detection on Columbia medium (Example 4); details: 75 mg/l, 48 h 37° C.; for Growth: control C: ++
Source text: as §2

[12] = test system: Salmonella ser typhimurium 0801029; experiment: Peptidase detection on Columbia medium (Example 4); details: 75 mg/l, 48 h 37° C.; for Growth: control C: ++
Source text: as §2

[13] = test system: Staphylococcus epidermidis 0203050; experiment: Peptidase detection on Columbia medium (Example 4); details: 75 mg/l, 48 h 37° C.; for Growth: control C: ++
Source text: as §2

[14] = test system: Burkholderia cepacia 7507032; experiment: Peptidase detection on Columbia medium (Example 4); details: 75 mg/l, 48 h 37° C.; for Growth: control C: ++
Source text: as §2

[15] = test system: Streptococcus pyogenes 9806380; experiment: Peptidase detection on Columbia medium (Example 4); details: 75 mg/l, 48 h 37° C.; for Growth: control C: ++
Source text: as §2

[16] = test system: Yersinia enterocolitica 7605019; experiment: Peptidase detection on Columbia medium (Example 4); details: 75 mg/l, 48 h 37° C.; for Growth: control C: ++
Source text: as §2

Candida glabrata 0408083 = experiment: Peptidase detection on Columbia medium (Example 4); details: 75 mg/l, 48 h 37° C.; for Growth: control C: +
Source text: as §2

[17] = test system: Enterococcus faecalis 0008192; experiment: Peptidase detection on Columbia medium (Example 4); details: 75 mg/l, 48 h 37° C.; for Growth: control C: ++
Source text: as §2

[18] = test system: Listeria monocytogenes 8812049; experiment: Peptidase detection on Columbia medium (Example 4); details: 75 mg/l, 48 h 37° C.; for Growth: control C: ++
Source text: as §2

Candida albicans 0801025 = experiment: Peptidase detection on Columbia medium (Example 4); details: 75 mg/l, 48 h 37° C.; for Growth: control C: ++
Source text: as §2

[19] = test system: Citrobacter freundii 0006197; experiment: Peptidase detection on Columbia medium (Example 4); details: 75 mg/l, 48 h 37° C.; for Growth: control C: ++
Source text: as §2

[20] = test system: Klebsiella pneumoniae 0008009; experiment: Peptidase detection on Columbia medium (Example 4); details: 75 mg/l, 48 h 37° C.; for Growth: control C: ++
Source text: as §2

[21] = test system: Enterobacter cloacae 0604040; experiment: Peptidase detection on Columbia medium (Example 4); details: 75 mg/l, 48 h 37° C.; for Growth: control C: ++
Source text: as §2

[22] = test system: Pseudomonas aeruginosa 0001001; experiment: Peptidase detection on Columbia medium (Example 4); details: 75 mg/l, 48 h 37° C.; for Growth: control C: ++
Source text: as §2

[23] = test system: Enterobacter cloacae NCTC 11 936; experiment: Peptidase detection on Columbia medium (Example 2); design: key to Growth: NG: No growth; 0.5: weak growth; 1: moderate growth; 2: good growth; details: 40 mg in 400 ml Columbia; 24 h 37° C.
Method: (§3) The 6 media were distributed into Petri dishes 90 mm in diameter, in a proportion of 20 ml per dish.
(§4) Seventeen strains of microorganisms stemming from collections and belonging to various species of bacteria and yeasts are inoculated in spots of approximately 10 000 colony-forming units.
(§5) The media are incubated for 24 hours at 37° C., and then the colonies formed are examined visually, with or without the addition of acid and under a UV lamp at 365 nm.

[24] = test system: Escherichia coli NCTC 10 418; experiment: Peptidase detection on Columbia medium (Example 2); design: key to Growth: NG: No growth; 0.5: weak growth; 1: moderate growth; 2: good growth; details: 40 mg in 400 ml Columbia; 24 h 37° C.
Method: as §3, §4, §5

[25] = test system: Salmonella typhimurium NCTC 74; experiment: Peptidase detection on Columbia medium (Example 2); design: key to Growth: NG: No growth; 0.5: weak growth; 1: moderate growth; 2: good growth; details: 40 mg in 400 ml Columbia; 24 h 37° C.
Method: as §3, §4, §5

[26] = test system: Candida albicans ATCC 90 028; experiment: Peptidase detection on Columbia medium (Example 2); design: key to Growth: NG: No growth; 0.5: weak growth; 1: moderate growth; 2: good growth; key to Fluo. / Color / Color post-acid.: —: no color; details: 40 mg in 400 ml Columbia; 24 h 37° C.
Method: as §3, §4, §5

In the case of `Nc1ccc(C=Cc2ccnc3ccccc23)cc1`, the Coloration strength [1] is reported as “−”, the Growth ([1]; control C: ++) is reported as “++” and the Coloration strength [2] is reported as “−”. The Growth ([2]; control C: ++) was “+”, the Coloration strength [3] was “−” and the Growth ([3]; control C: −) was “−”. For the same molecule, the toxicity [4] was “does not exhibit any particular toxicity”.

For `C[C@H](N)C(=O)Nc1ccc(C=Cc2cc[n+](C)c3ccccc23)cc1.Cl.[Cl-]` [L-alanyl-4-(4′-amidostyryl)-N-methylquinolinium (dichloride)], the Color [5] was “orange”, the Coloration strength [5] was “+” and the Growth [5] was “++”. For the same molecule, the Color [6] was “−”, the Coloration strength [6] was “−” and the Growth [6] was “++”. The Color [7] was “−”, the Coloration strength [7] was “−” and the Growth [7] was “++”. The Color (Escherichia coli 0002005) was “orange”, the Coloration strength (Escherichia coli 0002005) was “++” and the Growth (Escherichia coli 0002005) was “++”. For the same molecule, the Color [8] was “orange”, the Coloration strength [8] was “++” and the Growth [8] was “++”. For the same molecule, the Coloration strength [9] was “+”, the Growth [9] was “++” and the Color [10] was “orange”. For the same molecule, the Coloration strength [10] was “++”, the Growth [10] was “++” and the Color (MRSA 0303033) was “orange”. For the same molecule, the Coloration strength (MRSA 0303033) was “+”, the Growth (MRSA 0303033) was “++” and the Color [11] was “orange”. For the same molecule, the Coloration strength [11] was “++”, the Growth [11] was “++” and the Color [12] was “orange”. The Coloration strength [12] was “+”, the Growth [12] was “++” and the Color [13] was “orange”. The Coloration strength [13] was “++”, the Growth [13] was “++” and the Color [14] was “orange”. The Coloration strength [14] was “+”, the Growth [14] was “++” and the Color [15] was “orange”. The Coloration strength [15] was “+”, the Growth [15] was “++” and the Color [16] was “orange”. For the same molecule, the Coloration strength [16] was “++”, the Growth [16] was “++” and the Coloration strength (Candida glabrata 0408083) was “−”. For the same molecule, the Growth (Candida glabrata 0408083) was “+”, the Color [17] was “orange” and the Coloration strength [17] was “+”. For the same molecule, the Growth [17] was “++”, the Color [18] was “orange” and the Coloration strength [18] was “++”. For the same molecule, the Growth [18] was “++”, the Coloration strength (Candida albicans 0801025) was “−” and the Growth (Candida albicans 0801025) was “++”. The Color [19] was “orange”, the Coloration strength [19] was “+” and the Growth [19] was “++”. For the same molecule, the Color [20] was “orange”, the Coloration strength [20] was “++” and the Growth [20] was “++”. The Color [21] was “orange”, the Coloration strength [21] was “++” and the Growth [21] was “++”. For the same molecule, the Color [22] was “orange”, the Coloration strength [22] was “++” and the Growth [22] was “++”.

With `C[C@H](N)C(=O)N[C@@H](C)C(=O)N[C@@H](C)C(=O)Nc1ccc(C=Cc2cc[n+](C)c3ccccc23)cc1.Cl.[Cl-]` [Tri-Ala-ASQM^+, L-alanyl-L-alanyl-L-alanyl-4-(4′-amidostyryl)-N-methylquinolinium (dichloride)] the Color [23] was “Orange”, the Growth [23] was 2 and the Color [24] was “Orange”. For the same molecule, the Growth [24] was 2, the Color [25] was “Orange” and the Growth [25] was 2. For the same molecule, the Color [26] was “—”, the Growth [26] was 2 and the Color [5] was “orange”. The Coloration strength [5] was “+”, the Growth [5] was “++” and the Coloration strength [6] was “−”. For the same molecule, the Growth [6] was “++”, the Coloration strength [7] was “−” and the Growth [7] was “++”. The Color (Escherichia coli 0002005) was “orange”, the Coloration strength (Escherichia coli 0002005) was “++” and the Growth (Escherichia coli 0002005) was “++”. The Color [8] was “orange”, the Coloration strength [8] was “++” and the Growth [8] was “++”. For the same molecule, the Coloration strength [9] was “+”, the Growth [9] was “++” and the Color [10] was “orange”. The Coloration strength [10] was “++”, the Growth [10] was “++” and the Color (MRSA 0303033) was “orange”. For the same molecule, the Coloration strength (MRSA 0303033) was “+”, the Growth (MRSA 0303033) was “++” and the Color [11] was “orange”. For the same molecule, the Coloration strength [11] was “++”, the Growth [11] was “++” and the Color [12] was “orange”. For the same molecule, the Coloration strength [12] was “+”, the Growth [12] was “++” and the Color [13] was “orange”. For the same molecule, the Coloration strength [13] was “++”, the Growth [13] was “++” and the Color [14] was “orange”. The Coloration strength [14] was “+”, the Growth [14] was “++” and the Color [15] was “orange”. For the same molecule, the Coloration strength [15] was “+”, the Growth [15] was “++” and the Color [16] was “orange”. For the same molecule, the Coloration strength [16] was “++”, the Growth [16] was “++” and the Growth (Candida glabrata 0408083) was “−”. The Color [17] was “orange”, the Coloration strength [17] was “+” and the Growth [17] was “++”. The Color [18] was “orange”, the Coloration strength [18] was “++” and the Growth [18] was “++”. The Growth (Candida albicans 0801025) was “+”, the Color [19] was “orange” and the Coloration strength [19] was “+”. The Growth [19] was “++”, the Color [20] was “orange” and the Coloration strength [20] was “++”. The Growth [20] was “++”, the Color [21] was “orange” and the Coloration strength [21] was “++”. The Growth [21] was “++”, the Color [22] was “orange” and the Coloration strength [22] was “++”. The Growth [22] was “++”.
